Source: US20060041959A1, “Control of plant growth and developmental process” (Universiteit Leiden, priority 2003, published 2006)
“Also recorded” adds a separate entry of the source.

Key:
[1] = test system: wild-type arabiodopsis seeds (ecotype Columbia); assay: Germination and growth of wild-type Arabidopsis seedlings on ½MS medium containing plant growth substance; assay type: in vivo
From the text: (§1) It is thus likely that overexpression directly or indirectly leads to changes in the levels of plant growth substances. Plant cells affected in this manner can secrete regulatory signals affecting neighboring cells or tissues. It is thus shown herein that by using plant material overexpressing one or more members of the protein family described with the sequence identifiers mentioned, the development of other plant material (including non-transformed material) can be altered towards a more organogenic/embryogenic pathway.

[2] = test system: mutant phenotypes caused by NM—115413.1/NM—106300.1 overexpression constructs; assay: Effect of plant growth substance on NM_115413.1/NM_106300.1 overexpressing mutant phenotypes; assay type: in vivo, Arabidopsis; conditions: applied to overexpressing lines
From the text: as §1

CC(C)[C@@H](C)[C@@H](O)[C@H](O)[C@@H](C)[C@H]1CC[C@H]2[C@@H]3COC(=O)[C@H]4C[C@H](O)[C@H](O)C[C@]4(C)[C@H]3CC[C@]12C [24-epibrassinolide]
seedling growth phenotype after germination on medium containing the substance ([1]; 4 μM in ½MS medium, 14 and 28 dag, controls 0.1% DMSO, FIG. 3): growth aberrations resembling those seen in NM—115413.1 or NM—106300.1 overexpressing seedlings can be observed
somatic embryogenesis in wild-type plants ([1]; wild-type plants, FIG. 3): somatic embryogenesis was not observed
ability to mimic the mutant phenotypes caused by overexpression constructs in wild-type plants ([1]; wild-type plants, compared with other plant growth substances investigated): can mimic some of the effects of overexpression of the proteins of the invention; also recorded: most profound effect on wild-type plants
effect on mutant (overexpression) phenotypes [2]: able to make the mutant phenotypes more vigorous
